Test system: cyclamen root tuber
Test: Germination and rooting of cut-off root tubers in solid media
Assay type: in vivo
Design: Germination rate / Rooting rate: unit not given here
Conditions: NAA 0.05 mg/l
Method: The cyclamen root tuber obtained was cut off from the parent body and planted in an experimental plot prepared by adding 30 to 90 g/l of sucrose, NAA and BA to the ⅓ MS medium as shown in Table 4.6 g/l of agar was added to the medium which was then sterilized in an autoclave to prepare a solid medium having a pH of 7.0. The culture test tube was left under illumination for 12 hours a day and in the dark for 12 hours. As a result, the root tubers germinated and rooted while enlarging.

[1] = BA 0.05 mg/l (second 0.05 block, r16), sucrose 30 g/l, 60-th day
[2] = BA 0.05 mg/l (second 0.05 block, r16), sucrose 30 g/l, 97-th day
[3] = BA 0.05 mg/l (second 0.05 block, r16), sucrose 30 g/l, 127-th day
[4] = BA 0.05 mg/l (second 0.05 block, r17), sucrose 50 g/l, 60-th day
[5] = BA 0.05 mg/l (second 0.05 block, r17), sucrose 50 g/l, 97-th day
[6] = BA 0.05 mg/l (second 0.05 block, r17), sucrose 50 g/l, 127-th day
[7] = BA 0.05 mg/l (second 0.05 block, r18), sucrose 70 g/l, 60-th day
[8] = BA 0.05 mg/l (second 0.05 block, r18), sucrose 70 g/l, 97-th day
[9] = BA 0.05 mg/l (second 0.05 block, r18), sucrose 70 g/l, 127-th day
[10] = BA 0.05 mg/l (second 0.05 block, r19), sucrose 90 g/l, 60-th day
[11] = BA 0.05 mg/l (second 0.05 block, r19), sucrose 90 g/l, 97-th day
[12] = BA 0.05 mg/l (second 0.05 block, r19), sucrose 90 g/l, 127-th day
[13] = BA 0.05 mg/l, sucrose 30 g/l, 60-th day
[14] = BA 0.05 mg/l, sucrose 30 g/l, 97-th day
[15] = BA 0.05 mg/l, sucrose 30 g/l, 127-th day
[16] = BA 0.05 mg/l, sucrose 50 g/l, 60-th day
[17] = BA 0.05 mg/l, sucrose 50 g/l, 97-th day
[18] = BA 0.05 mg/l, sucrose 50 g/l, 127-th day
[19] = BA 0.05 mg/l, sucrose 70 g/l, 60-th day
[20] = BA 0.05 mg/l, sucrose 70 g/l, 97-th day
[21] = BA 0.05 mg/l, sucrose 70 g/l, 127-th day
[22] = BA 0.05 mg/l, sucrose 90 g/l, 60-th day
[23] = BA 0.05 mg/l, sucrose 90 g/l, 97-th day
[24] = BA 0.05 mg/l, sucrose 90 g/l, 127-th day
[25] = BA 0.1 mg/l, sucrose 30 g/l, 60-th day
[26] = BA 0.1 mg/l, sucrose 30 g/l, 97-th day
[27] = BA 0.1 mg/l, sucrose 30 g/l, 127-th day
[28] = BA 0.1 mg/l, sucrose 50 g/l, 60-th day
[29] = BA 0.1 mg/l, sucrose 50 g/l, 97-th day
[30] = BA 0.1 mg/l, sucrose 50 g/l, 127-th day
[31] = BA 0.1 mg/l, sucrose 70 g/l, 60-th day
[32] = BA 0.1 mg/l, sucrose 70 g/l, 97-th day
[33] = BA 0.1 mg/l, sucrose 70 g/l, 127-th day
[34] = BA 0.1 mg/l, sucrose 90 g/l, 60-th day
[35] = BA 0.1 mg/l, sucrose 90 g/l, 97-th day
[36] = BA 0.1 mg/l, sucrose 90 g/l, 127-th day
[37] = BA 1.0 mg/l, sucrose 30 g/l, 60-th day
[38] = BA 1.0 mg/l, sucrose 30 g/l, 97-th day
[39] = BA 1.0 mg/l, sucrose 30 g/l, 127-th day
[40] = BA 1.0 mg/l, sucrose 50 g/l, 60-th day
[41] = BA 1.0 mg/l, sucrose 50 g/l, 97-th day
[42] = BA 1.0 mg/l, sucrose 50 g/l, 127-th day
[43] = BA 1.0 mg/l, sucrose 70 g/l, 60-th day
[44] = BA 1.0 mg/l, sucrose 70 g/l, 97-th day
[45] = BA 1.0 mg/l, sucrose 70 g/l, 127-th day
[46] = BA 1.0 mg/l, sucrose 90 g/l, 60-th day
[47] = BA 1.0 mg/l, sucrose 90 g/l, 97-th day
[48] = BA 1.0 mg/l, sucrose 90 g/l, 127-th day

Compound: c1ccc(CNc2ncnc3[nH]cnc23)cc1 [BA, benzylaminopurine]
- Enlarging ratio [1]: 3.23
- Germination rate [1]: 40
- Rooting rate [1]: 20
- Enlarging ratio [2]: 3.97
- Germination rate [2]: 40
- Rooting rate [2]: 40
- Enlarging ratio [3]: 4.23
- Germination rate [3]: 40
- Rooting rate [3]: 40
- Enlarging ratio [4]: 2.52
- Germination rate [4]: 40
- Rooting rate [4]: 0
- Enlarging ratio [5]: 2.85
- Germination rate [5]: 60
- Rooting rate [5]: 0
- Enlarging ratio [6]: 3.25
- Germination rate [6]: 60
- Rooting rate [6]: 20
- Germination rate [7]: 20
- Rooting rate [7]: 20
- Germination rate [8]: 40
- Rooting rate [8]: 20
- Germination rate [9]: 40
- Rooting rate [9]: 20
- Enlarging ratio [10]: 2.67
- Germination rate [10]: 0
- Rooting rate [10]: 20
- Enlarging ratio [11]: 4.98
- Germination rate [11]: 60
- Rooting rate [11]: 20
- Enlarging ratio [12]: 5.78
- Germination rate [12]: 60
- Rooting rate [12]: 20
- Enlarging ratio [13]: 2.17
- Germination rate [13]: 20
- Rooting rate [13]: 40
- Enlarging ratio [14]: 2.41
- Germination rate [14]: 80
- Rooting rate [14]: 40
- Enlarging ratio [15]: 2.47
- Germination rate [15]: 80
- Rooting rate [15]: 40
- Enlarging ratio [16]: 2.83
- Germination rate [16]: 20
- Rooting rate [16]: 20
- Enlarging ratio [17]: 3.43
- Germination rate [17]: 60
- Rooting rate [17]: 80
- Enlarging ratio [18]: 4.23
- Germination rate [18]: 60
- Rooting rate [18]: 80
- Germination rate [19]: 40
- Rooting rate [19]: 0
- Germination rate [20]: 40
- Rooting rate [20]: 60
- Germination rate [21]: 40
- Rooting rate [21]: 60
- Enlarging ratio [22]: 1.93
- Germination rate [22]: 40
- Rooting rate [22]: 20
- Enlarging ratio [23]: 2.11
- Germination rate [23]: 40
- Rooting rate [23]: 60
- Enlarging ratio [24]: 2.11
- Germination rate [24]: 40
- Rooting rate [24]: 60
- Enlarging ratio [25]: 2.05
- Germination rate [25]: 40
- Rooting rate [25]: 40
- Enlarging ratio [26]: 2.35
- Germination rate [26]: 60
- Rooting rate [26]: 80
- Enlarging ratio [27]: 2.35
- Germination rate [27]: 60
- Rooting rate [27]: 80
- Enlarging ratio [28]: 2.40
- Germination rate [28]: 20
- Rooting rate [28]: 40
- Enlarging ratio [29]: 2.90
- Germination rate [29]: 40
- Rooting rate [29]: 40
- Enlarging ratio [30]: 3.10
- Germination rate [30]: 60
- Rooting rate [30]: 60
- Enlarging ratio [31]: 1.40
- Germination rate [31]: 20
- Rooting rate [31]: 0
- Enlarging ratio [32]: 2.47
- Germination rate [32]: 40
- Rooting rate [32]: 0
- Enlarging ratio [33]: 2.73
- Germination rate [33]: 40
- Rooting rate [33]: 20
- Enlarging ratio [34]: 2.68
- Germination rate [34]: 0
- Rooting rate [34]: 40
- Enlarging ratio [35]: 3.28
- Germination rate [35]: 0
- Rooting rate [35]: 40
- Enlarging ratio [36]: 3.28
- Germination rate [36]: 20
- Rooting rate [36]: 40
- Enlarging ratio [37]: 2.25
- Germination rate [37]: 0
- Rooting rate [37]: 0
- Enlarging ratio [38]: 3.50
- Germination rate [38]: 40
- Rooting rate [38]: 0
- Enlarging ratio [39]: 3.95
- Germination rate [39]: 40
- Rooting rate [39]: 0
- Enlarging ratio [40]: 2.27
- Germination rate [40]: 20
- Rooting rate [40]: 0
- Enlarging ratio [41]: 3.18
- Germination rate [41]: 40
- Rooting rate [41]: 20
- Enlarging ratio [42]: 4.02
- Germination rate [42]: 40
- Rooting rate [42]: 20
- Enlarging ratio [43]: 2.25
- Germination rate [43]: 0
- Rooting rate [43]: 20
- Enlarging ratio [44]: 4.03
- Germination rate [44]: 20
- Rooting rate [44]: 40
- Enlarging ratio [45]: 4.81
- Germination rate [45]: 20
- Rooting rate [45]: 60
- Enlarging ratio [46]: 1.84
- Germination rate [46]: 40
- Rooting rate [46]: 20
- Enlarging ratio [47]: 2.11
- Germination rate [47]: 60
- Rooting rate [47]: 40
- Enlarging ratio [48]: 2.47
- Germination rate [48]: 60
- Rooting rate [48]: 40

Source: patent US20050229276A1, “Method of producing cyclamen root tuber and method of proliferating cyclamen using the same” (Tokyo University of Agricultural, priority 2002, published 2005)
